system: DMM-resistant isolates of Pseudoperonospora cubensis; test: Control of DMM-resistant isolates of Pseudoperonospora cubensis on intact cucumber plants, ED90 and Wadley synergy; assay type: in vivo; settings: Trial 1, downy mildew lesions per leaf
Method: (§1) A synergistic effect exists whenever the action of an active ingredient combination is greater than the sum of the actions of the individual components. The Wadley Method is well-known method for determining whether synergy exists. In the Wadley Method, synergistic activity is determined from dose, response curves. With this method, the efficacy of the active ingredient (“a.i.”) is determined by comparing the degree of fungal attack on treated plants with that on untreated, similarly inoculated and incubated check plants. Each a.i. is generally tested at multiple (e.g., six) concentrations and dose response curves are generated. The dose response curves are used to establish the ED90 (i.e., estimated concentration required to produce 90% killing of fungi) of the individual compounds as well as of the combinations (ED90observed). The experimentally found values of the mixture at a given weight ratio are compared with the values that would have been found where only a complementary efficacy of the components was present (ED90 (A+B) expected). The ED90 (A+B) expected is generally calculated according to Wadley (Levi et al., EPPO-Bulletin 16, 1986, 651-657) or (Wadley, F. M., U.S. Dep. Agric., Agric. Res. Adm., Bur. Entomol. And Plant Quar. ET-223, 1945, 8) as follows:
(§2) wherein a and b are the weight ratios of the compounds A and B in the mixture and the indexes (A), (B) and (A+B) refer to the observed ED90values of the compounds A, B or the A+B mixture thereof. The ratio ED90 (A+B)expected/ED90 (A+B)observed expresses the level of the synergistic factor (SF).
A trial was conducted to estimate the synergistic interaction between three fungicides in controlling DMM-resistant isolates of P. cubensis, the causal agent of downy mildew in cucurbits.
Commercially available compositions of dimethomorph (Sphinx 50 SC), folpet (Folpan 80 WDG) and fosetyl-Al (Aliette 80 WDG), as well as 80 wt. %, WDG composition comprising a combination of dimethomorph, folpet and fosetyl-Al (mixed at a weight ratio of 1:5:10) were suspended in water, diluted to a series of concentrations in water, and sprayed initial run off.
Two isolates of P. cubensis were used. Intact, two-true leaf cucumber plants (n=2) were used for inoculation. Inoculation and incubation were conducted according to the description in example 1, except that sporangial concentration was adjusted to 2×103 sporangia/ml. Disease records were taken by counting the number of downy mildew lesions per leaf (n=4). Data analysis was done as described in Example 1.

In order of falling “ED90 observed Trial 1” value:
1. CCO[PH](=O)O [Fosetyl-Al, fosetyl-Al]  2088 µg/mL
2. COc1ccc(C(=CC(=O)N2CCOCC2)c2ccc(Cl)cc2)cc1OC [Dimethomorph, dimethomorph]  701 µg/mL
3. O=C1c2ccccc2C(=O)N1SC(Cl)(Cl)Cl [Folpet, folpet]  254 µg/mL

same assay, conditions: Trial 2, downy mildew lesions per leaf

In order of falling “ED90 observed Trial 2” value:
1. CCO[PH](=O)O [Fosetyl-Al, fosetyl-Al]  508 µg/mL
2. COc1ccc(C(=CC(=O)N2CCOCC2)c2ccc(Cl)cc2)cc1OC [Dimethomorph, dimethomorph]  424 µg/mL
3. O=C1c2ccccc2C(=O)N1SC(Cl)(Cl)Cl [Folpet, folpet]  81 µg/mL

system: Plasmopara viticola; test: Control of Plasmopara viticola (downy mildew) on detached grapevine leaves, ED90 by Probit analysis, synergy by Wadley method; assay type: in vivo; settings: Trial 1; detached grape leaves, spray before inoculation, 7-10 days after inoculation
Method: as §1, §2
A trial was conducted to in order to estimate the synergistic interaction between three fungicides in controlling the oomycete, Plasmopara viticola, the downy mildew causal agent, in grapevines.
Commercially available compositions of dimethomorph (Sphinx 50 SC), folpet (Folpan 80 WDG) and fosetyl-Al (Aliette 80 WDG), as well as 80 wt. %, WDG composition comprising a combination of dimethomorph, folpet and fosetyl-Al (mixed at a weight ratio of 1:5:10) were suspended in water, diluted to a series of concentrations in water and sprayed onto the lower leaf surface of detached grape leaves to initial run off.
Two cultivars of grapevines (Vitis vinifera) were used: Carinian and Merlo, both susceptible to P. viticola. Grafted Carinian plants were grown in pots in the greenhouse whereas Merlo vines were grown in the field. Plants were regularly sprayed with appropriate fungicides to protect them against powdery mildew (Uncinulla necator). In total, five experiments were conducted, three with Carinian and two with Merlo.
The 3rd and the 4th leaf from top of a branch were detached, sprayed on lower leaf surface with a fungicide, three leaves per fungicide per concentration per cultivar, and placed lower surface uppermost on moist filter paper in a plastic tray (70×50×5 cm). Normally, one tray served for one cultivar and one fungicide and contained 27 leaves (21 leaves treated with 7 doses of a fungicide+6 control untreated leaves).
Trays with the sprayed leaves were placed in a ventilated hood for about one hour until the spray droplets dried off and thereafter were inoculated with the pathogen.
An isolate of P. viticola was propagated on detached leaves of Carinian by repeated inoculations. Sporangia were harvested from freshly sporulating leaves into ice-cold distilled water, their concentration adjusted to 1×10^5 sporangia/ml. Sporangial suspension was sprayed onto the lower surface of the treated and control leaves laying in the trays. Trays were thereafter wrapped with cellophane bags, kept at 15° C. in the dark for 20 h and then at 20° C. under 14 h light photoperiod. At 7-10 days after inoculation, disease development was recorded by visual estimation of the leaf area occupied with sporophores and spores of P. viticola.
Mean sporulating leaf area was then calculated for each treatment (n=3, n for control=6). A mean value was calculated for all four controls in an experiment. […]

In order of rising “ED90 observed Trial 1” value:
1. COc1ccc(C(=CC(=O)N2CCOCC2)c2ccc(Cl)cc2)cc1OC [Dimethomorph, dimethomorph]  2.42 µg/mL
2. O=C1c2ccccc2C(=O)N1SC(Cl)(Cl)Cl [Folpet, folpet]  65.8 µg/mL
3. CCO[PH](=O)O [Fosetyl-Al, fosetyl-Al]  936 µg/mL

same assay, conditions: Trial 2; detached grape leaves, spray before inoculation, 7-10 days after inoculation

In order of rising “ED90 observed Trial 2” value:
1. COc1ccc(C(=CC(=O)N2CCOCC2)c2ccc(Cl)cc2)cc1OC [Dimethomorph, dimethomorph]  1.81 µg/mL
2. O=C1c2ccccc2C(=O)N1SC(Cl)(Cl)Cl [Folpet, folpet]  30.6 µg/mL
3. CCO[PH](=O)O [Fosetyl-Al, fosetyl-Al]  1522 µg/mL

same assay, conditions: Trial 3; detached grape leaves, spray before inoculation, 7-10 days after inoculation

In order of falling “ED90 observed Trial 3” value:
1. CCO[PH](=O)O [Fosetyl-Al, fosetyl-Al]  611 µg/mL
2. O=C1c2ccccc2C(=O)N1SC(Cl)(Cl)Cl [Folpet, folpet]  57.1 µg/mL
3. COc1ccc(C(=CC(=O)N2CCOCC2)c2ccc(Cl)cc2)cc1OC [Dimethomorph, dimethomorph]  0.91 µg/mL

same assay, conditions: Trial 4; detached grape leaves, spray before inoculation, 7-10 days after inoculation

In order of rising “ED90 observed Trial 4” value:
1. COc1ccc(C(=CC(=O)N2CCOCC2)c2ccc(Cl)cc2)cc1OC [Dimethomorph, dimethomorph]  3.95 µg/mL
2. O=C1c2ccccc2C(=O)N1SC(Cl)(Cl)Cl [Folpet, folpet]  61.8 µg/mL
3. CCO[PH](=O)O [Fosetyl-Al, fosetyl-Al]  274 µg/mL

same assay, conditions: Trial 5; detached grape leaves, spray before inoculation, 7-10 days after inoculation

In order of rising “ED90 observed Trial 5” value:
1. COc1ccc(C(=CC(=O)N2CCOCC2)c2ccc(Cl)cc2)cc1OC [Dimethomorph, dimethomorph]  2.25 µg/mL
2. O=C1c2ccccc2C(=O)N1SC(Cl)(Cl)Cl [Folpet, folpet]  39.8 µg/mL
3. CCO[PH](=O)O [Fosetyl-Al, fosetyl-Al]  297 µg/mL
